Reference: ChEMBL document CHEMBL1133064, “1-[2-[(Heteroaryloxy)heteroaryl]carbamoyl]indolines: novel and selective 5-HT2C receptor inverse agonists with potential as antidepressant/anxiolytic agents” (Bioorg Med Chem Lett, 2000)

Tests used:
[1] = target: Serotonin receptor (2b and 2c) (Homo sapiens) (UniProt P41595+P28335); experiment: Selectivity expressed as ratio of serotonin 5-HT2C receptor over serotonin 5-HT2B receptor; assay type: protein assay
Rattus norvegicus [2] = experiment: Dose required to reverse mCPP induced hypolocomotion by 50% at 7 mg/kg, ip administration 30 min pretest; assay type: functional; details: 0.5 h, route intraperitoneal, read-out: ID50 (the source's name)
[3] = target: T1, 5-hydroxytryptamine receptor 2C (Homo sapiens, UniProt P28335); experiment: Binding affinity towards human cloned 5-hydroxytryptamine 2C receptor of HEK293 cells by displacement of [3H]mesulergine; assay type: cell-based
T1 sequence (P28335 whole entry): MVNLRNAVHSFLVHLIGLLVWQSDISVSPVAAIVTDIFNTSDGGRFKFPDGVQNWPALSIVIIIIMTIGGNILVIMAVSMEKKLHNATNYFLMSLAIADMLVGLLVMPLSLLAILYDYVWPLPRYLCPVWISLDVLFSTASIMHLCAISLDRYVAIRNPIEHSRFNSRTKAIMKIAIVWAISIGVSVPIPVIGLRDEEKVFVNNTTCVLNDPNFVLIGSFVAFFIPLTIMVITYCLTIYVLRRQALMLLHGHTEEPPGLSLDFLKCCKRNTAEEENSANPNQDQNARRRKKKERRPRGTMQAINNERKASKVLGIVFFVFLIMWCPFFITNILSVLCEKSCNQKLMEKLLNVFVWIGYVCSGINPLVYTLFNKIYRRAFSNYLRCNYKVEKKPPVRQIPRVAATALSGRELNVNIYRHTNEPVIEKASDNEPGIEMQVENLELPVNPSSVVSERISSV

[4] = target: 5-hydroxytryptamine receptor 2B (Homo sapiens, UniProt P41595); experiment: Binding affinity towards human cloned 5-HT2B receptor of HEK293 cells by displacement of [3H]5-HT; assay type: cell-based
[5] = target: Serotonin 2 receptors; 5-HT2a & 5-HT2c (Homo sapiens) (UniProt P28223+P28335); experiment: Selectivity expressed as ratio of serotonin 5-HT2C receptor over serotonin 5-HT2A receptor; assay type: protein assay
[6] = target: 5-hydroxytryptamine receptor 2A (Homo sapiens, UniProt P28223); experiment: Binding affinity towards human cloned 5-hydroxytryptamine 2A receptor of HEK293 cells by displacement of [3H]ketanserin; assay type: cell-based
Rattus norvegicus [7] = experiment: Percent reversal of mCPP induced hypolocomotion after peroral administration at 5 mg/kg in rat; assay type: functional; details: route oral

Sequence of Serotonin 2 receptors; 5-HT2a & 5-HT2c (Homo sapiens) (P28223 whole entry, looked up, one chain of several): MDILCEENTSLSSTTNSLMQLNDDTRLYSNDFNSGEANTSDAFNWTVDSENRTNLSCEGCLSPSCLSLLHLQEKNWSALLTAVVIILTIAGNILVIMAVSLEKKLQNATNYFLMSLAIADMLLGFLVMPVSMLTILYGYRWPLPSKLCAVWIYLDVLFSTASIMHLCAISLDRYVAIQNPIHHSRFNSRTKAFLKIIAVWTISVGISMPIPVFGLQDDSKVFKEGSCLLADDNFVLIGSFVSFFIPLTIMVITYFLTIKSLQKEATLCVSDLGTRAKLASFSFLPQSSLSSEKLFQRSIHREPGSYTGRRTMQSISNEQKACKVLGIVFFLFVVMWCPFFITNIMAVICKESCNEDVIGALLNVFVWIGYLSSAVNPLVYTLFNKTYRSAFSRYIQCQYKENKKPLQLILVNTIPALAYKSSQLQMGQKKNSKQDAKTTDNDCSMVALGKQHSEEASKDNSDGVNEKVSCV
Sequence of 5-hydroxytryptamine receptor 2A (P28223 whole entry): as the sequence (P28223 whole entry, looked up, one chain of several) above
Sequence of 5-hydroxytryptamine receptor 2B (P41595 whole entry): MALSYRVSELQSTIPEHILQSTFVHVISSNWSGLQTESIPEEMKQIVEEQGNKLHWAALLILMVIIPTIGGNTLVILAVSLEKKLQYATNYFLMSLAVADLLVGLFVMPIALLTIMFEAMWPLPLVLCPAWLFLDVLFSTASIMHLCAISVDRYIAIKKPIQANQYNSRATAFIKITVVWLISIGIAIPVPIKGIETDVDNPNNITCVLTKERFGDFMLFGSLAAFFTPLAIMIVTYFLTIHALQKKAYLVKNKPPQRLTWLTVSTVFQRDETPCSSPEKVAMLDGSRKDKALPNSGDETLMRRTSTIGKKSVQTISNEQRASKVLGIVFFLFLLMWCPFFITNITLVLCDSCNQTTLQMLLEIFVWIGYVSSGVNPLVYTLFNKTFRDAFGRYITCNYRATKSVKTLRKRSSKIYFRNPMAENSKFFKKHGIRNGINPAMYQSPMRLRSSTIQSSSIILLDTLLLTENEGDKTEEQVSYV

Compound: Cc1ncccc1Oc1ccc(NC(=O)N2CCc3cc(C(F)(F)F)ccc32)cn1
- Selectivity [1]: 160
- ED50 (Rattus norvegicus [2]): 2.1 mg/kg
- Ki [3]: 3.98 nM
- Ki [4]: 631 nM
- Selectivity [5]: 630
- Ki [6]: 2510 nM

Compound: Cc1cc2c(cc1Cl)N(C(=O)Nc1cnc(Oc3cccnc3C)c(Cl)c1)CC2
- Selectivity [1]: 30
- ED50 (Rattus norvegicus [2]): > 5 mg/kg
- Ki [3]: 0.631 nM
- Ki [4]: 20 nM
- Selectivity [5]: 200
- Ki [6]: 126 nM

Compound: Cc1ncccc1Oc1ccc(NC(=O)N2CCc3c2cccc3C(F)(F)F)cn1
- Selectivity [1]: > 50
- Ki [3]: 200 nM
- Ki [4]: > 10000 nM
- Selectivity [5]: > 50
- Ki [6]: > 10000 nM

Compound: Cc1ncccc1Oc1ccc(NC(=O)N2CCc3cc(Br)ccc32)cn1
- Selectivity [1]: 200
- Ki [3]: 3.16 nM
- Ki [4]: 631 nM
- Selectivity [5]: > 1300
- Reversal (Rattus norvegicus [7]): 10%
- Ki [6]: > 3980 nM

Compound: Cc1cc2c(cc1C(F)(F)F)N(C(=O)Nc1ccc(Oc3cccnc3C)nn1)CC2
- Selectivity [1]: 40
- ED50 (Rattus norvegicus [2]): 1.2 mg/kg
- Ki [3]: 3.16 nM
- Ki [4]: 126 nM
- Selectivity [5]: 130
- Ki [6]: 398 nM

Compound: Cc1ncccc1Oc1ccc(NC(=O)N2CCc3ccc(Cl)cc32)cn1
- Selectivity [1]: 200
- Ki [3]: 3.98 nM
- Ki [4]: 794 nM
- Selectivity [5]: 80
- Reversal (Rattus norvegicus [7]): 3%
- Ki [6]: 316 nM

Compound: Cc1cc2c(cc1C(F)(F)F)N(C(=O)Nc1cnc(Oc3cccnc3C)cn1)CC2
- Selectivity [1]: 40
- ED50 (Rattus norvegicus [2]): 3.6 mg/kg
- Ki [3]: 2 nM
- Ki [4]: 79.4 nM
- Selectivity [5]: 320
- Ki [6]: 631 nM

Compound: CCCc1ncccc1Oc1ccc(NC(=O)N2CCc3cc(C)c(Cl)cc32)cn1
- Selectivity [1]: 60
- Ki [3]: 1.58 nM
- Ki [4]: 100 nM
- Selectivity [5]: 100
- Reversal (Rattus norvegicus [7]): 18%
- Ki [6]: 158 nM

Compound: Cc1ncccc1Oc1ccc(NC(=O)N2CCc3cc(Cl)ccc32)cn1
- Selectivity [1]: 320
- Ki [3]: 6.31 nM
- Ki [4]: 2000 nM
- Selectivity [5]: > 1600
- Reversal (Rattus norvegicus [7]): 40%
- Ki [6]: > 10000 nM

Compound: Cc1ncccc1Oc1ccc(NC(=O)N2CCc3c2ccc(Cl)c3Cl)cn1
- Selectivity [1]: 160
- Ki [3]: 3.16 nM
- Ki [4]: 501 nM
- Selectivity [5]: 1000
- Reversal (Rattus norvegicus [7]): 4%
- Ki [6]: 3160 nM

Compound: Cc1ncccc1Oc1ccc(NC(=O)N2CCc3c2cc(C(F)(F)F)c2c3CCO2)cn1
- Selectivity [1]: 50
- ED50 (Rattus norvegicus [2]): 9 mg/kg
- Ki [3]: 1.26 nM
- Ki [4]: 63.1 nM
- Selectivity [5]: 400
- Ki [6]: 501 nM

Compound: Cc1ncccc1Oc1ccc(NC(=O)N2CCc3cc(Br)c(C(F)(F)F)cc32)cn1
- Selectivity [1]: 80
- ED50 (Rattus norvegicus [2]): 2 mg/kg
- Ki [3]: 1.26 nM
- Ki [4]: 100 nM
- Selectivity [5]: 100
- Ki [6]: 126 nM

Compound: Cc1cc2c(cc1Br)N(C(=O)Nc1ccc(Oc3cccnc3C)nc1)CC2
- Selectivity [1]: 80
- Ki [3]: 0.794 nM
- Ki [4]: 63.1 nM
- Selectivity [5]: 200
- Reversal (Rattus norvegicus [7]): 49%
- Ki [6]: 158 nM

Compound: Cc1ncccc1Oc1ccc(NC(=O)N2CCc3cc(F)c(Cl)cc32)cn1
- Selectivity [1]: 100
- Ki [3]: 6.31 nM
- Ki [4]: 631 nM
- Selectivity [5]: 80
- Reversal (Rattus norvegicus [7]): 16%
- Ki [6]: 501 nM

Compound: Cc1ncccc1Oc1ccc(NC(=O)N2CCc3ccc(C(F)(F)F)cc32)cn1
- Selectivity [1]: 80
- Ki [3]: 5.01 nM
- Ki [4]: 398 nM
- Selectivity [5]: 30
- Ki [6]: 158 nM

Compound: Cc1ncccc1Oc1ccc(NC(=O)N2CCc3c(Br)cccc32)cn1
- Selectivity [1]: > 130
- Ki [3]: 15.8 nM
- Ki [4]: > 2000 nM
- Selectivity [5]: > 400
- Reversal (Rattus norvegicus [7]): 3%
- Ki [6]: > 6310 nM

Compound: Cc1cc2c(cc1C(F)(F)F)N(C(=O)Nc1ccc(Oc3cccnc3C)nc1)CC2 [SB-243213]
- Selectivity [1]: 100
- ED50 (Rattus norvegicus [2]): 1 mg/kg
- Selectivity [5]: 160

Compound: Cc1cc2c(cc1Cl)N(C(=O)Nc1cnc(Oc3cccnc3C)c(C)c1)CC2
- Selectivity [1]: 20
- ED50 (Rattus norvegicus [2]): 0.8 mg/kg
- Ki [3]: 1.58 nM
- Ki [4]: 31.6 nM
- Selectivity [5]: 80
- Ki [6]: 126 nM

Compound: Cc1ncccc1Oc1ccc(NC(=O)N2CCc3c(Cl)cccc32)cn1
- Selectivity [1]: 160
- Ki [3]: 15.8 nM
- Ki [4]: 2510 nM
- Selectivity [5]: > 630
- Reversal (Rattus norvegicus [7]): 6%
- Ki [6]: > 10000 nM

Compound: CCc1cc2c(cc1C(F)(F)F)N(C(=O)Nc1ccc(Oc3cccnc3C)nc1)CC2
- Selectivity [1]: 50
- Ki [3]: 2.51 nM
- Ki [4]: 126 nM
- Selectivity [5]: 200
- Reversal (Rattus norvegicus [7]): 12%
- Ki [6]: 501 nM

Compound: Cc1cc2c(cc1Cl)CCN2C(=O)Nc1ccc(Oc2cccnc2C)nc1
- Selectivity [1]: 100
- Ki [3]: 1.26 nM
- Ki [4]: 126 nM
- Selectivity [5]: 130
- Reversal (Rattus norvegicus [7]): 7.3%
- Ki [6]: 158 nM

Compound: Cc1ncccc1Oc1ccc(NC(=O)N2CCc3cc(Cl)c(Cl)cc32)cn1
- Selectivity [1]: 160
- Ki [3]: 2 nM
- Ki [4]: 316 nM
- Selectivity [5]: 130
- Reversal (Rattus norvegicus [7]): 32%
- Ki [6]: 251 nM

Compound: CSc1cc2c(cc1C(F)(F)F)N(C(=O)Nc1ccc(Oc3cccnc3C)nc1)CC2
- Selectivity [1]: 100
- Ki [3]: 0.398 nM
- Ki [4]: 39.8 nM
- Selectivity [5]: 630
- Reversal (Rattus norvegicus [7]): 31%
- Ki [6]: 251 nM

Compound: Cc1cc2c(cc1Cl)N(C(=O)Nc1ccc(Oc3cccnc3C)nc1)CC2
- Selectivity [1]: 100
- Selectivity [5]: 160

Compound: Cc1cc2c(cc1Cl)N(C(=O)Nc1ccc(Oc3cccnc3C(C)C)nc1)CC2
- Selectivity [1]: 2
- Ki [3]: 126 nM
- Ki [4]: 200 nM
- Selectivity [5]: 6
- Ki [6]: 794 nM

Compound: Cc1cc2c(cc1C(F)(F)F)N(C(=O)Nc1ccc(Oc3cncnc3C)nc1)CC2
- Selectivity [1]: 6
- Ki [3]: 2 nM
- Ki [4]: 12.6 nM
- Selectivity [5]: 40
- Ki [6]: 79.4 nM

Compound: Cc1cc2c(cc1Cl)N(C(=O)Nc1ccc(Oc3cccnc3C)nn1)CC2
- Selectivity [1]: 80
- ED50 (Rattus norvegicus [2]): 1.6 mg/kg
- Ki [3]: 2 nM
- Ki [4]: 158 nM
- Selectivity [5]: 800
- Ki [6]: 1580 nM

Compound: Cc1ncccc1Oc1ccc(NC(=O)N2CCc3cc(I)ccc32)cn1
- Selectivity [1]: 100
- Ki [3]: 3.16 nM
- Ki [4]: 316 nM
- Selectivity [5]: 500
- Reversal (Rattus norvegicus [7]): 14%
- Ki [6]: 1580 nM

Compound: Cc1ccc2c(c1Br)CCN2C(=O)Nc1ccc(Oc2cccnc2C)nc1
- Selectivity [1]: 160
- Ki [3]: 1.58 nM
- Ki [4]: 251 nM
- Selectivity [5]: > 630
- Reversal (Rattus norvegicus [7]): 0%
- Ki [6]: > 1000 nM

Compound: Cc1ncccc1Oc1ccc(NC(=O)N2CCc3ccccc32)cn1
- Selectivity [1]: 20
- Ki [3]: 100 nM
- Ki [4]: 2000 nM
- Selectivity [5]: > 100
- Ki [6]: > 10000 nM

Compound: COc1cc2c(cc1C(F)(F)F)N(C(=O)Nc1cnc(Oc3cccnc3C)cc1C)CC2
- Selectivity [1]: 1.3
- Ki [3]: 200 nM
- Ki [4]: 251 nM
- Selectivity [5]: 3
- Ki [6]: 631 nM

Compound: Cc1ncccc1Oc1ccc(NC(=O)N2CCc3cc(F)ccc32)cn1
- Selectivity [1]: 130
- Ki [3]: 39.8 nM
- Ki [4]: 5010 nM
- Selectivity [5]: > 250
- Reversal (Rattus norvegicus [7]): 4%
- Ki [6]: > 10000 nM

Compound: Cc1cc2c(cc1Cl)N(C(=O)Nc1ccc(Oc3cnccc3C)nc1)CC2
- Selectivity [1]: 30
- Ki [3]: 1 nM
- Ki [4]: 31.6 nM
- Selectivity [5]: 8
- Ki [6]: 7.94 nM

Compound: CCc1ncccc1Oc1ccc(NC(=O)N2CCc3cc(C)c(Cl)cc32)cn1
- Selectivity [1]: 25
- ED50 (Rattus norvegicus [2]): 1.8 mg/kg
- Ki [3]: 2 nM
- Ki [4]: 50.1 nM
- Selectivity [5]: 100
- Ki [6]: 200 nM

Compound: Cc1cc2c(cc1C(F)(F)F)N(C(=O)Nc1cnc(Oc3cccnc3C)c(Cl)c1)CC2
- Selectivity [1]: 25
- ED50 (Rattus norvegicus [2]): > 5 mg/kg
- Ki [3]: 1.58 nM
- Ki [4]: 39.8 nM
- Selectivity [5]: 160
- Ki [6]: 251 nM

Compound: Cc1cc2c(cc1F)N(C(=O)Nc1ccc(Oc3cccnc3C)nc1)CC2
- Selectivity [1]: 100
- Ki [3]: 1.58 nM
- Ki [4]: 158 nM
- Selectivity [5]: 500
- Reversal (Rattus norvegicus [7]): 46%
- Ki [6]: 794 nM

Compound: Cc1cc2c(cc1Cl)N(C(=O)Nc1ccc(Oc3cnccc3Cl)nc1)CC2
- Selectivity [1]: 25
- Ki [3]: 0.501 nM
- Ki [4]: 12.6 nM
- Selectivity [5]: 30
- Ki [6]: 15.8 nM

Compound: Cc1ncccc1Oc1ccc(NC(=O)N2CCc3c2cc(Cl)c(C)c3Cl)cn1
- Selectivity [1]: 40
- Ki [3]: 1 nM
- Ki [4]: 39.8 nM
- Selectivity [5]: 60
- Reversal (Rattus norvegicus [7]): 85%
- Ki [6]: 63.1 nM

Compound: Cc1cc2c(cc1Cl)N(C(=O)Nc1cnc(Oc3cccnc3C)nc1)CC2
- Selectivity [1]: 20
- ED50 (Rattus norvegicus [2]): 3.7 mg/kg
- Ki [3]: 3.16 nM
- Ki [4]: 63.1 nM
- Selectivity [5]: > 200
- Ki [6]: > 631 nM

Compound: COc1cc2c(cc1C(F)(F)F)N(C(=O)Nc1ccc(Oc3cccnc3C)nc1)CC2
- Selectivity [1]: 80
- Selectivity [5]: 1300

Compound: Cc1cc2c(cc1Cl)N(C(=O)Nc1ccc(Oc3cccnc3Cl)nc1)CC2
- Selectivity [1]: 40
- ED50 (Rattus norvegicus [2]): 4.5 mg/kg
- Ki [3]: 1.26 nM
- Ki [4]: 50.1 nM
- Selectivity [5]: 80
- Ki [6]: 100 nM
